Legend:
[1] = test system: Blumeria graminis f. sp. tritici; experiment: Blumeria graminis f. sp. tritici / wheat / leaf disc preventative (Powdery mildew on wheat); type: in vivo; settings: 200ppm, wheat leaf segments cv. Kanzler, inoculated 1 day after application, percent disease control compared to untreated, 6 - 8 days after application
Protocol: Blumeria graminis f. sp. tritici (Erysiphe graminis f. sp. tritici) / wheat / leaf disc preventative (Powdery mildew on wheat): Wheat leaf segments cv. Kanzler were placed on agar in a 24-well plate and sprayed with the formulated test compound diluted in water at an application rate of 200ppm. The leaf disks were inoculated by shaking powdery mildew infected plants above the test plates 1 day after application. The inoculated leaf disks were incubated at 20°C and 60% relative humidity under a light regime of 24 h darkness followed by 12h/12h (dark/light) in a climate chamber and the activity of a compound was assessed as percent disease control compared to untreated when an appropriate level of disease damage appears on untreated check leaf segments (6 - 8 days after application). […] P.01, P.02

[2] = test system: Puccinia recondita f. sp. tritici; experiment: Puccinia recondita f. sp. tritici / wheat / leaf disc preventative (Brown rust); type: in vivo; settings: 200ppm, wheat leaf segments cv Kanzler, inoculated 1 day after application, percent disease control compared to untreated, 7 - 9 days after application
Protocol: Puccinia recondita f. sp. tritici l wheat / leaf disc preventative (Brown rust): Wheat leaf segments cultivated variety (cv) Kanzler were placed on agar in 24-well plates and sprayed with formulated test compound diluted in water at an application rate of 200ppm. The leaf disks were inoculated with a spore suspension of the fungus 1 day after application. The inoculated leaf segments were incubated at 19°C and 75% relative humidity under a light regime of 12/12 h (light/dark) in a climate cabinet and the activity of a compound was assessed as percent disease control compared to untreated when an appropriate level of disease damage appears in untreated check leaf segments (7 - 9 days after application). […] P.01, P.02

[3] = test system: Mycosphaerella arachidis; experiment: Mycosphaerella arachidis (Cercospora arachidicola) / liquid culture (early leaf spot); type: cell-based; settings: 200ppm; liquid culture (PDB potato dextrose broth), 24°C; inhibition of growth determined photometrically 4-5 days after application
Protocol: (§1) Mycosphaerella arachidis (Cercospora arachidicola) / liquid culture (early leaf spot): Conidia of the fungus from cryogenic storage were directly mixed into nutrient broth (PDB potato dextrose broth). After placing a DMSO solution of test compound into a 96-well microtiter plate at an application rate of 200ppm, the nutrient broth containing the fungal spores was added. The test plates were incubated at 24°C and the inhibition of growth was determined photometrically 4-5 days after application. […] P.01, P.02

[4] = test system: Magnaporthe grisea; type: in vivo; settings: 200ppm; rice leaf segments cv. Ballila, preventative, inoculated 2 days after application; percent disease control compared to untreated, 5 - 7 days after application
[5] = test system: Puccinia recondita f. sp. tritici; experiment: Puccinia recondita f. sp. tritici / wheat / leaf disc curative (Brown rust); type: in vivo; settings: 200ppm, wheat leaf segments cv Kanzler, applied 1 day after inoculation, percent disease control compared to untreated, 6 - 8 days after application
Protocol: Puccinia recondita f. sp. tritici / wheat / leaf disc curative (Brown rust): Wheat leaf segments cv Kanzler were placed on agar in 24-well plates. The leaf segments were inoculated with a spore suspension of the fungus. The plates were stored in darkness at 19°C and 75% relative humidity. The formulated test compound diluted in water was applied at an application rate of 200ppm 1 day after inoculation. The leaf segments were incubated at 19°C and 75% relative humidity under a light regime of 12/12 h (light/dark) in a climate cabinet and the activity of a compound was assessed as percent disease control compared to untreated when an appropriate level of disease damage appears in untreated check leaf segments (6 - 8 days after application). […] P.01, P.02

[6] = test system: Phaeosphaeria nodorum; experiment: Phaeosphaeria nodorum / wheat / leaf disc preventative (Glume blotch); type: in vivo; settings: 200ppm, wheat leaf segments cv Kanzler, inoculated 2 days after application, percent disease control compared to untreated, 5 - 7 days after application
Protocol: Phaeosphaeria nodorum (Septorla nodorum) / wheat / leaf disc preventative (Glume blotch): Wheat leaf segments cv Kanzler were placed on agar in a 24-well plate and sprayed with formulated test compound diluted in water at an application rate of 200ppm. The leaf disks were inoculated with a spore suspension of the fungus 2 days after application. The inoculated test leaf disks were incubated at 20°C and 75% relative humidity under a light regime of 12/12 h (light/dark) in a climate cabinet and the activity of a compound was assessed as percent disease control compared to untreated when an appropriate level of disease damage appears in untreated check leaf disks (5 - 7 days after application). […] P.01, P.02

[7] = test system: Monographella nivalis; experiment: Monographella nivalis (Microdochium nivale) / liquid culture (foot rot cereals); type: cell-based; settings: 200ppm; liquid culture (PDB potato dextrose broth), 24°C; inhibition of growth determined photometrically 4-5 days after application
Protocol: as §1, with “Monographella nivalis (Microdochium nivale)” for “Mycosphaerella arachidis (Cercospora arachidicola)”, “(foot rot cereals):” for “(early leaf spot):”

[8] = test system: Botryotinia fuckeliana; experiment: Botryotinia fuckeliana (Botrytis cinerea) / liquid culture (Gray mould); type: cell-based; settings: 200ppm; liquid culture (Vogels broth), 24°C; inhibition of growth determined photometrically 3-4 days after application
Protocol: as §1, with “Botryotinia fuckeliana (Botrytis cinerea)” for “Mycosphaerella arachidis (Cercospora arachidicola)”, “(Gray mould):” for “(early leaf spot):”, “(Vogels” for “(PDB potato dextrose”, “3-4” for “4-5”

[9] = test system: Mycosphaerella graminicola; experiment: Mycosphaerella graminicola (Septoria tritici) / liquid culture (Septoria blotch); type: cell-based; settings: 200ppm; liquid culture (PDB potato dextrose broth), 24°C; inhibition of growth determined photometrically 4-5 days after application
Protocol: as §1, with “graminicola (Septoria tritici)” for “arachidis (Cercospora arachidicola)”, “(Septoria blotch):” for “(early leaf spot):”

[10] = test system: Pythium ultimum; experiment: Pythium ultimum / liquid culture (seedling damping off); type: cell-based; settings: 200ppm; liquid culture (potato dextrose broth), 24°C; inhibition of growth determined photometrically 2-3 days after application
Protocol: Pythium ultimum / liquid culture (seedling damping off) Mycelia fragments and oospores of a newly grown liquid culture of the fungus were directly mixed into nutrient broth (potato dextrose broth). After placing a DMSO solution of test compound into a 96-well format microtiter plate at an application rate of 200ppm, the nutrient broth containing the fungal mycelia/spore mixture was added. The test plates were incubated at 24°C and the inhibition of growth was determined photometrically 2-3 days after application. […] P.01, P.02

[11] = test system: Pyrenophora teres; experiment: Pyrenophora teres / barley / leaf disc preventative (Net blotch); type: in vivo; settings: 200ppm, barley leaf segments cv Hasso, inoculated two days after application, disease control compared to untreated, 5 - 7 days after application
Protocol: Pyrenophora teres / barley / leaf disc preventative (Net blotch): Barley leaf segments cv Hasso were placed on agar in a 24-well plate and sprayed with formulated test compound diluted in water at an application rate of 200ppm. The leaf segments were inoculated with a spore suspension of the fungus two days after application of the test solution. The inoculated leaf segments were incubated at 20°C and 65% relative humidity under a light regime of 12/12 h (light/dark) in a climate cabinet and the activity of a compound was assessed as disease control compared to untreated when an appropriate level of disease damage appears in untreated check leaf segments (5 - 7 days after application). […] P.01, P.02

[12] = test system: Glomerella lagenarium; experiment: Glomerella lagenarium (Colletotrichum lagenarium) / liquid culture (Anthracnose); type: cell-based; settings: 200ppm; liquid culture (PDB potato dextrose broth), 24°C; inhibition of growth measured photometrically 3-4 days after application
Protocol: as §1, with “Glomerella lagenarium (Colletotrichum lagenarium)” for “Mycosphaerella arachidis (Cercospora arachidicola)”, “(Anthracnose) :” for “(early leaf spot):”, “measured” for “determined”, “3-4” for “4-5”

[13] = test system: Thanatephorus cucumeris; experiment: Thanatephorus cucumeris (Rhizoctonia solani) / liquid culture (foot rot, damping-off); type: cell-based; settings: 200ppm; liquid culture (PDB potato dextrose broth), 24°C; inhibition of growth determined photometrically 3-4 days after application
Protocol: Thanatephorus cucumeris (Rhizoctonia solani) / liquid culture (foot rot, damping-off): Mycelia fragments of a newly grown liquid culture of the fungus were directly mixed into nutrient broth (PDB potato dextrose broth). After placing a DMSO solution of the test compounds into a 96-well microtiter plate at an application rate of 200ppm, the nutrient broth containing the fungal material was added. The test plates were incubated at 24°C and the inhibition of growth was determined photometrically 3-4 days after application. […] P.01, P.02

CO/N=C1\CCCc2ccc(CCCO/N=C(\C)c3cccc(C)n3)nc21 [P.02]
at least 80%: control of Blumeria graminis [1] | control of Puccinia recondita f. sp. tritici [2] | control of Mycosphaerella arachidis [3] | control of Magnaporthe grisea [4] | control of Puccinia recondita f. sp. tritici [5] | control of Phaeosphaeria nodorum [6] | control of Monographella nivalis [7] | control of Botryotinia fuckeliana [8] | control of Mycosphaerella graminicola [9] | control of Pythium ultimum [10] | control of Pyrenophora teres [11] | control of Glomerella lagenarium [12] | control of Thanatephorus cucumeris [13]

— patent EP2641901A1, “Novel microbiocides” (Syngenta Participations AG, priority 2012, dated 2013)
